According to patent US20090274773A1, “ANTIPROLIFERATIVE COMBINATION COMPRISING CYC-682 AND A CYTOTOXIC AGENT” (Cyclacel Limited, priority 2005, published 2009):
Read-outs that look alike come from different tables or passages of the source. One block for each compound: values may come before it.

Key:
Format in all cases: cell-based, human
[1] = system: HOP92; experiment: MTT growth inhibition assay, single agent; conditions: read-out: Antiproliferative effects IC50s (MTT assay)
Protocol: (§1) All cell lines were obtained from the ATCC (Rockville, Md.). Cells were grown as monolayers in RPMI medium supplemented with 10% fetal calf serum (Invitrogen, Cergy-Pontoise, France), 2 mM glutamine, 100 units/ml penicillin and 100 μg/ml streptomycin. All cells were split twice a week using trypsin/EDTA (0.25% and 0.02%, respectively; Invitrogen, Cergy-Pontoise, France) and seeded at a concentration of 2.5×10^4 cells/ml. All cell lines were tested regularly for Mycoplasma contamination by PCR using a Stratagene kit (La Jolla, Calif.).
(§2) The MTT assay was carried out as described previously (Hansen M B, Nielsen S E, Berg K. Re-examination and further development of a precise and rapid dye method for measuring cell growth/cell kill. J Immunol Methods. 1989 May 12; 119(2):203-10). In brief, cells were seeded in 96-well tissue culture plates at a density of 2×10^3 cells/well. Cell viability was determined after a 120-hour incubation, by the calorimetric conversion of yellow, water-soluble tetrazolium MTT (3-[4,5-dimethylthiazol-2-yl]-2,5-diphenyltetrazolium bromide; Sigma, Saint-Quentin Fallavier, France), into purple, water-insoluble formazan. This reaction is catalyzed by mitochondrial dehydrogenases and is used to estimate the relative number of viable cells (Mosmann, T, Rapid calorimetric assay for cellular growth and survival: application to proliferation and cytotoxicity assays. J Immunol Methods. 1983 Dec. 16; 65 (1-2):55-63). Cells were incubated with 0.4 mg/ml MTT for 4 hours at 37° C. After incubation, the supernatant was discarded, the cell pellet was resuspended in 0.1 ml of DMSO and the absorbance was measured at 560 nm using a microplate reader (Dynatech, Michigan). Wells with untreated cells or with drug-containing medium without cells were used as positive and negative controls, respectively. Growth inhibition curves were plotted as a percentage of untreated control cells.
(§3) The cells were seeded at 2×10^3 cells/well in 96-well plates and treated 24 hours later with increasing concentrations of CYC682. After incubation times of 1 hour, 24 hours or 48 hours, the cells were washed and post-incubated in drug-free medium for 72 hours. Growth inhibition was then determined by the MTT assay.

[2] = system: HCC2998; experiment: MTT growth inhibition assay, single agent; conditions: read-out: Antiproliferative effects IC50s (MTT assay)
Protocol: as §1, §2, §3

[3] = system: HOP62; experiment: MTT growth inhibition assay, single agent; conditions: read-out: Antiproliferative effects IC50s (MTT assay)
Protocol: as §1, §2, §3

[4] = system: IGROV1; experiment: MTT growth inhibition assay, single agent; conditions: read-out: Antiproliferative effects IC50s (MTT assay)
Protocol: as §1, §2, §3

[5] = system: MCF7; experiment: MTT growth inhibition assay, single agent; conditions: 24 hours exposure, read-out: Antiproliferative effects IC50s (MTT assay)
Protocol: as §1, §2, §3

[6] = system: COLO205; experiment: MTT growth inhibition assay, single agent; conditions: read-out: Antiproliferative effects IC50s (MTT assay)
Protocol: as §1, §2, §3

[7] = system: MDA-MB-435; experiment: MTT growth inhibition assay, single agent; conditions: 24 hours exposure, read-out: Antiproliferative effects IC50s (MTT assay)
Protocol: as §1, §2, §3

[8] = system: OVCAR1; experiment: MTT growth inhibition assay, single agent; conditions: 24 hours exposure, read-out: Antiproliferative effects IC50s (MTT assay)
Protocol: as §1, §2, §3

[9] = system: HT29; experiment: MTT growth inhibition assay, single agent; conditions: read-out: Antiproliferative effects IC50s (MTT assay)
Protocol: as §1, §2, §3

[10] = system: HCT116; experiment: MTT growth inhibition assay, single agent; conditions: read-out: Antiproliferative effects IC50s (MTT assay)
Protocol: as §1, §2, §3

[11] = system: NSCLC cell line H1299; experiment: CNDAC combinations (alamar blue, Calcusyn Combination Index)
Protocol: Experiments in the NSCLC cell lines H1299 or RERF-LC-MA were performed in 96-well plates, with cells seeded at a density of 3,000/well, in DMEM containing 10% (v/v) FCS. Stock solutions of all drugs were made up in dimethylsulfoxide (DMSO), with the exception of gemcitabine, which was dissolved in 0.9% (w/v) sterile saline solution.
For experimental assessment of potential synergistic interactions, the concomitant treatment regime involved simultaneous treatment of cells with CNDAC and the other agent under investigation for 72 h, alongside suitable controls of cells treated with the individual compounds alone for 72 hr. In the sequential treatment regimes, one drug was added to the cells 2 h after plating, and left for 24 h. Media was then aspirated, replaced with fresh media containing the second drug and incubated for 72 h. The two individual treatment controls for the sequential treatment regime involved substituting one of the drug treatments with drug-free media. […] Drug interactions were analysed using the Calcusyn software package (BioSoft, Cambridge, U.K.) described below.

[12] = Homo sapiens, HOP-92, 24 hours exposure
[13] = Homo sapiens, HCC 2998, 24 hours exposure
[14] = Homo sapiens, HOP-62, 24 hours exposure
[15] = Homo sapiens, IGROV-1, 24 hours exposure
[16] = Homo sapiens, COLO 205, 24 hours exposure
[17] = Homo sapiens, HT-29, 24 hours exposure
[18] = Homo sapiens, HCT-116, 24 hours exposure
[19] = named agent in combination with CNDAC, H1299, CNDAC 24 h then other agent 72 h
[20] = named agent in combination with CNDAC, H1299, named agent 24 h then CNDAC 72 h
[21] = named agent in combination with CNDAC, H1299, simultaneous treatment 72 h

IC50 [2, 13]: 10 ± 1 µM
IC50 ([5]; Homo sapiens): 10 ± 1 µM
IC50 [6, 16]: 240 ± 20 µM
IC50 ([7]; Homo sapiens): 10 ± 2 µM
IC50 ([8]; Homo sapiens): 24 ± 1 µM
IC50 [9, 17]: 24 ± 1 µM
IC50 [10, 18]: 5.3 ± 1.3 µM
SMILES: O=c1[nH]cc(F)c(=O)[nH]1 [5-FU, 5-fluorouracil]
IC50 [1, 12]: 11 ± 1 µM
IC50 [3, 14]: 118 ± 32 µM
IC50 [4, 15]: 29 ± 1 µM

IC50 [2, 13]: 3.7 ± 0.5 µM
IC50 ([5]; Homo sapiens): > 300 µM
IC50 [6, 16]: 28 ± 8 µM
IC50 ([7]; Homo sapiens): 38 ± 9 µM
IC50 ([8]; Homo sapiens): > 300 µM
IC50 [9, 17]: 130 ± 40 µM
IC50 [10, 18]: 1.2 ± 0.4 µM
SMILES: Nc1ccn([C@@H]2O[C@H](CO)[C@H](O)[C@@H]2O)c(=O)n1 [Ara-C, 4-amino-1-[(2R,3S,4R,5R)-3,4-dihydroxy-5-(hydroxymethyl)oxolan-2-yl]pyrimidin-2-one]
IC50 [1, 12]: 1.3 ± 0.3 µM
IC50 [3, 14]: 6.3 ± 2.8 µM
IC50 [4, 15]: 89 ± 21 µM

SMILES: N.N.[Cl][Pt][Cl] [Cisplatin, cis-diamminedichlorplatinum (II)]
Interaction with CNDAC at ED50 (in words) ([11]; H1299, concomitant treatment): weak synergy
Interaction with CNDAC at ED50 (in words) ([11]; H1299, pre-treatment with named agent): synergy
Interaction with CNDAC (in words), summary of Table 3 ([11]; combination with CNDAC, regime not specified): synergistic drug interactions
Combination Index at ED75, CNDAC pretreatment [11, 19]: 1.5
Combination Index at ED90, CNDAC pretreatment [11, 19]: 13.68
Combination Index at ED50, CNDAC pretreatment ([11]; named agent in combination with CNDAC, H1299, CNDAC 24 h then other agent 72 h, C.I. <1 synergistic, 1 additive, >1 antagonistic): 1.16
Combination Index at ED50, Other (named agent) pretreatment [11, 20]: 0.65
Combination Index at ED75, Other (named agent) pretreatment [11, 20]: 0.93
Combination Index at ED90, Other (named agent) pretreatment [11, 20]: 1.96
Combination Index at ED50, Concomitant [11, 21]: 0.77
Combination Index at ED75, Concomitant [11, 21]: 1.65
Combination Index at ED90, Concomitant [11, 21]: 7.56
IC50 ([1]; 24 hours exposure): 4.4 ± 0.4 µM
IC50 ([2]; 24 hours exposure): 25 ± 5 µM
IC50 ([3]; 24 hours exposure): 9.3 ± 0.9 µM
IC50 ([4]; 24 hours exposure): 26 ± 6 µM
IC50 [5]: 32 ± 2 µM
IC50 ([6]; 24 hours exposure): 9.5 ± 2.5 µM
IC50 [7]: 13 ± 2.6 µM
IC50 [8]: 12.1 ± 3.93 µM
IC50 ([9]; 24 hours exposure): 25 ± 3 µM
IC50 ([10]; 24 hours exposure): 9.2 ± 0.9 µM
